According to the supplement of paper PMC10307832:

Tests used:
Test in all cases: relative viability (nuclei count vs DMSO), 5 days (fraction); higher = more cells survive
COR-L23 = tested on: COR-L23
Method in brief: (§1)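 Relative viability was taken as the ratio of nuclei in treated wells to nuclei in vehicle wells. Lung cancer cell lines in 1536-well plates received compounds by pin tool one day after seeding, either one drug alone or a fixed anchor-drug dose plus five library-drug doses (not always all listed) in √10 steps. Nuclei were counted on 4× images after 5 days of treatment, and values are medians of duplicate plates.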

ChaGo-K-1 = tested on: ChaGo-K-1
Method in brief: as §1

EMC-BAC-2 = tested on: EMC-BAC-2
Method in brief: as §1

EPLC-272H = tested on: EPLC-272H
Method in brief: as §1

H3255 = tested on: H3255
Method in brief: as §1

HCC-827 = tested on: HCC-827
Method in brief: as §1

LCLC-103H = tested on: LCLC-103H
Method in brief: as §1

LU99A = tested on: LU99A
Method in brief: as §1

NCI-H1395 = tested on: NCI-H1395
Method in brief: as §1

NCI-H1563 = tested on: NCI-H1563
Method in brief: as §1

NCI-H1651 = tested on: NCI-H1651
Method in brief: as §1

NCI-H1793 = tested on: NCI-H1793
Method in brief: as §1

NCI-H1944 = tested on: NCI-H1944
Method in brief: as §1

NCI-H2023 = tested on: NCI-H2023
Method in brief: as §1

NCI-H2085 = tested on: NCI-H2085
Method in brief: as §1

NCI-H2087 = tested on: NCI-H2087
Method in brief: as §1

NCI-H2405 = tested on: NCI-H2405
Method in brief: as §1

NCI-H520 = tested on: NCI-H520
Method in brief: as §1

NCI-H650 = tested on: NCI-H650
Method in brief: as §1

NCI-H838 = tested on: NCI-H838
Method in brief: as §1

SK-MES-1 = tested on: SK-MES-1
Method in brief: as §1

## Cc1sc2c(c1C)C(c1ccc(Cl)cc1)=N[C@@H](CC(=O)OC(C)(C)C)c1nnc(C)n1-2 [JQ1] + COc1cc2c(Oc3ccc(NC(=O)C4(C(=O)Nc5ccc(F)cc5)CC4)cc3F)ccnc2cc1OCCCN1CCOCC1 [Foretinib] (partner 0.25 µM)
COR-L23; first compound 0.04 µM
  relative viability: 0.98
COR-L23; first compound 0.1265 µM
  relative viability: 0.73
COR-L23; first compound 0.4 µM
  relative viability: 0.892
COR-L23; first compound 1.265 µM
  relative viability: 0.663
COR-L23; first compound 4 µM
  relative viability: 0.432
ChaGo-K-1; first compound 0.04 µM
  relative viability: 0.95
ChaGo-K-1; first compound 0.1265 µM
  relative viability: 0.827
ChaGo-K-1; first compound 0.4 µM
  relative viability: 0.929
ChaGo-K-1; first compound 1.265 µM
  relative viability: 0.7
ChaGo-K-1; first compound 4 µM
  relative viability: 0.583
EMC-BAC-2; first compound 0.04 µM
  relative viability: 1.04
EMC-BAC-2; first compound 0.1265 µM
  relative viability: 0.868
EMC-BAC-2; first compound 0.4 µM
  relative viability: 0.584
EMC-BAC-2; first compound 1.265 µM
  relative viability: 0.376
EMC-BAC-2; first compound 4 µM
  relative viability: 0.556
EPLC-272H; first compound 0.04 µM
  relative viability: 0.639
EPLC-272H; first compound 0.1265 µM
  relative viability: 0.508
EPLC-272H; first compound 0.4 µM
  relative viability: 0.454
EPLC-272H; first compound 1.265 µM
  relative viability: 0.247
EPLC-272H; first compound 4 µM
  relative viability: 0.191
H3255; first compound 0.04 µM
  relative viability: 0.78
H3255; first compound 0.1265 µM
  relative viability: 0.884
H3255; first compound 0.4 µM
  relative viability: 0.987
H3255; first compound 1.265 µM
  relative viability: 0.793
H3255; first compound 4 µM
  relative viability: 0.442
HCC-827; first compound 0.04 µM
  relative viability: 1.1
HCC-827; first compound 0.4 µM
  relative viability: 1.14
HCC-827; first compound 1.265 µM
  relative viability: 1.22
HCC-827; first compound 4 µM
  relative viability: 0.907
LCLC-103H; first compound 0.04 µM
  relative viability: 0.765
LCLC-103H; first compound 0.1265 µM
  relative viability: 0.6
LCLC-103H; first compound 0.4 µM
  relative viability: 0.562
LCLC-103H; first compound 1.265 µM
  relative viability: 0.481
LCLC-103H; first compound 4 µM
  relative viability: 0.301
LU99A; first compound 0.04 µM
  relative viability: 0.821
LU99A; first compound 0.1265 µM
  relative viability: 0.85
LU99A; first compound 0.4 µM
  relative viability: 0.559
LU99A; first compound 1.265 µM
  relative viability: 0.374
LU99A; first compound 4 µM
  relative viability: 0.304
NCI-H1395; first compound 0.04 µM
  relative viability: 0.716
NCI-H1395; first compound 0.1265 µM
  relative viability: 0.955
NCI-H1395; first compound 0.4 µM
  relative viability: 1
NCI-H1395; first compound 1.265 µM
  relative viability: 0.732
NCI-H1395; first compound 4 µM
  relative viability: 0.525
NCI-H1563; first compound 0.04 µM
  relative viability: 0.96
NCI-H1563; first compound 0.1265 µM
  relative viability: 0.733
NCI-H1563; first compound 0.4 µM
  relative viability: 0.756
NCI-H1563; first compound 1.265 µM
  relative viability: 0.681
NCI-H1563; first compound 4 µM
  relative viability: 0.692
NCI-H1651; first compound 0.04 µM
  relative viability: 0.904
NCI-H1651; first compound 0.1265 µM
  relative viability: 0.787
NCI-H1651; first compound 0.4 µM
  relative viability: 0.625
NCI-H1651; first compound 1.265 µM
  relative viability: 0.352
NCI-H1651; first compound 4 µM
  relative viability: 0.365
NCI-H1793; first compound 0.04 µM
  relative viability: 0.65
NCI-H1793; first compound 0.1265 µM
  relative viability: 0.788
NCI-H1793; first compound 0.4 µM
  relative viability: 0.713
NCI-H1793; first compound 1.265 µM
  relative viability: 0.728
NCI-H1793; first compound 4 µM
  relative viability: 0.483
NCI-H1944; first compound 0.04 µM
  relative viability: 0.797
NCI-H1944; first compound 0.1265 µM
  relative viability: 0.792
NCI-H1944; first compound 0.4 µM
  relative viability: 0.513
NCI-H1944; first compound 1.265 µM
  relative viability: 0.441
NCI-H1944; first compound 4 µM
  relative viability: 0.425
NCI-H2023; first compound 0.04 µM
  relative viability: 0.779
NCI-H2023; first compound 0.1265 µM
  relative viability: 0.816
NCI-H2023; first compound 0.4 µM
  relative viability: 0.597
NCI-H2023; first compound 1.265 µM
  relative viability: 0.252
NCI-H2023; first compound 4 µM
  relative viability: 0.199
NCI-H2085; first compound 0.04 µM
  relative viability: 0.855
NCI-H2085; first compound 0.1265 µM
  relative viability: 0.821
NCI-H2085; first compound 0.4 µM
  relative viability: 0.578
NCI-H2085; first compound 1.265 µM
  relative viability: 0.428
NCI-H2085; first compound 4 µM
  relative viability: 0.37
NCI-H2087; first compound 0.04 µM
  relative viability: 1.06
NCI-H2087; first compound 0.1265 µM
  relative viability: 0.997
NCI-H2087; first compound 0.4 µM
  relative viability: 0.766
NCI-H2087; first compound 1.265 µM
  relative viability: 0.518
NCI-H2087; first compound 4 µM
  relative viability: 0.479
NCI-H2405; first compound 0.04 µM
  relative viability: 1.08
NCI-H2405; first compound 0.1265 µM
  relative viability: 1.02
NCI-H2405; first compound 0.4 µM
  relative viability: 1.03
NCI-H2405; first compound 1.265 µM
  relative viability: 0.835
NCI-H2405; first compound 4 µM
  relative viability: 0.744
NCI-H520; first compound 0.04 µM
  relative viability: 0.732
NCI-H520; first compound 0.1265 µM
  relative viability: 0.793
NCI-H520; first compound 0.4 µM
  relative viability: 0.81
NCI-H520; first compound 1.265 µM
  relative viability: 0.35
NCI-H520; first compound 4 µM
  relative viability: 0.277
NCI-H650; first compound 0.04 µM
  relative viability: 0.996
NCI-H650; first compound 0.1265 µM
  relative viability: 0.717
NCI-H650; first compound 0.4 µM
  relative viability: 0.687
NCI-H650; first compound 1.265 µM
  relative viability: 0.385
NCI-H650; first compound 4 µM
  relative viability: 0.294
NCI-H838; first compound 0.04 µM
  relative viability: 1.08
NCI-H838; first compound 0.1265 µM
  relative viability: 0.703
NCI-H838; first compound 0.4 µM
  relative viability: 0.801
NCI-H838; first compound 1.265 µM
  relative viability: 0.31
NCI-H838; first compound 4 µM
  relative viability: 0.285
SK-MES-1; first compound 0.04 µM
  relative viability: 0.817
SK-MES-1; first compound 0.1265 µM
  relative viability: 0.642
SK-MES-1; first compound 0.4 µM
  relative viability: 0.675
SK-MES-1; first compound 1.265 µM
  relative viability: 0.359
SK-MES-1; first compound 4 µM
  relative viability: 0.333
